These results are taken from publication PMC5330258 (Journal of medicinal chemistry, 2016).

Read-outs that look alike come from different tables or passages of the source.

For series [1] the following is noted: cited from earlier work.
In a further series the target is T1, VDR (Homo sapiens, UniProt P11473).
T1 sequence (P11473 1-427): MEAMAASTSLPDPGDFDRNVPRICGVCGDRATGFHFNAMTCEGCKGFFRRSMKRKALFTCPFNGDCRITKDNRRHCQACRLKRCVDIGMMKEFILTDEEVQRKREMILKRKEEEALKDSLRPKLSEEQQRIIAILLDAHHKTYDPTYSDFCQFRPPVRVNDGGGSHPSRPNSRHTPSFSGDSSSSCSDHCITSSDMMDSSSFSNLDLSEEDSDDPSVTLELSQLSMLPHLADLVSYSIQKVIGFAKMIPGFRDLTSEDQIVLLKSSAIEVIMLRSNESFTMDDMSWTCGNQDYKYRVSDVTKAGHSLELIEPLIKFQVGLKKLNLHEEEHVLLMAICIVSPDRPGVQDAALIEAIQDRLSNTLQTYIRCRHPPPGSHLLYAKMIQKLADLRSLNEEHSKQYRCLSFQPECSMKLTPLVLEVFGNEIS
Put plainly: Lentiviral VDRE-luciferase transcriptional reporter assay. It is filed as cell-based. As to conditions: for VDR activation (in words): concentration up to 1000 nM, all three cell lines (HaCaT, Caco-2, Jurkat); for EC50: 24 h, NS: no significance. A general note: Reporter assays use an easily measured gene product as a stand-in for the process of interest.

For another series, the system named is SKMEL-188 melanoma cells. Put plainly: Antiproliferative activity on melanoma cells. In kind it is cell-based. As to conditions: compared with parent compounds and 1,25(OH)2D3.

On to `C=C1/C(=C\C=C2/CCC[C@]3(C)[C@@H]([C@H](C)CCCC(C)(C)O)CC[C@@H]23)C[C@@H](O)C[C@@H]1O` [1,25(OH)2D3, 1α,25-dihydroxyvitamin D3], for which the Calcemic effect result in series [1] (rats and mice) is reported as “causes hypercalcemia”.

For the molecule `C=C1CC[C@H](O)C/C1=C/C=C1\CCC[C@@]2(C)[C@H]1CC[C@@H]2[C@@](C)(O)C[C@H](O)CC(C)C` [17a, 20S,23R(OH)2D3], the “VDR activation (in words)” value at VDR was “strong stimulatory effect”.

As for `C=C1CC[C@H](O)C/C1=C/C=C1\CCC[C@@]2(C)[C@H]1CC[C@@H]2[C@@](C)(O)C[C@@H](O)CC(C)C` [17b, 20S,23S-dihydroxyvitamin D3], at VDR, the “VDR activation (in words)” value is reported as “unable to activate VDR”. Moreover, the EC50 (commonly the concentration that produces a half-maximal response) on VDR (read-out: VDRE activation (EC50, nM) Caco-2, Caco-2 cells) was above 1000 nM; at VDR (read-out: VDRE activation (EC50, nM) HaCaT, HaCaT cells), above 1000 nM; at VDR (read-out: VDRE activation (EC50, nM) Jurkat, Jurkat cells) it was above 1000 nM.

With `C=C1/C(=C\C=C2/CCC[C@@]3(C)[C@H]2CC[C@@H]3[C@@](C)(O)C[C@H](O)CC(C)C)C[C@@H](O)C[C@@H]1O` [18a, 1α,20S,23R(OH)3D3], the “Maximal inhibition values (in words)” value in the series with SKMEL-188 melanoma cells is given as “higher maximal inhibition values”. The “EC50 in Jurkat cells relative to that of 18b” value at VDR (Jurkat cells) is “six times lower”.

Consider `C=C1/C(=C\C=C2/CCC[C@@]3(C)[C@H]2CC[C@@H]3[C@@](C)(O)C[C@@H](O)CC(C)C)C[C@@H](O)C[C@@H]1O` [18b, 1α,20S,23S(OH)3D3], for which the “Maximal inhibition values (in words)” value with SKMEL-188 melanoma cells was “higher maximal inhibition values”.

Take `C=C1CC[C@H](O)C/C1=C/C=C1\CCC[C@@]2(C)[C@H]1CC[C@@H]2[C@@](C)(O)CCCC(C)C` [20S(OH)D3, 20S-hydroxyvitamin D3]: the Calcemic effect entry in series [1] (doses up to 30 μg/kg in mice) is given as “noncalcemic”.
